How the values were obtained:
[1] = tested on: primary breast cells; experiment: Toxicity against primary breast cells; assay type: cell-based
[2] = tested on: MDA-MB-361; experiment: Sensibility to AM5; assay type: cell-based, human
Protocol: (§1) Cell viability assay. Cell viability assay was carried out by plating 1000 cells/well in 96-well plates. Cells were treated as indicated for 72 h. CellTiter-Blue® Reagent (G8081, Promega) was added after 72 h treatment and cells were incubated for 1 h before recording fluorescence intensities (Excitation, 560/20 nm; Emission, 590/10 nm) using a Perkin Elmer Wallac 1420 Victor2 Microplate Reader.

[3] = tested on: T47D; experiment: Sensibility to AM5; assay type: cell-based, human; settings: H+
Protocol: as §1

[4] = tested on: MDA-MB-231; experiment: Sensibility to AM5; assay type: cell-based, human; settings: MDA-MB-231, CSTN
Protocol: as §1

[5] = tested on: HBL100; experiment: Sensibility to AM5; assay type: cell-based, human; settings: HBL100, Non-tumoral
Protocol: as §1

[6] = tested on: Zr75.1; experiment: Sensibility to AM5; assay type: cell-based, human; settings: Zr75.1, H+
Protocol: as §1

[7] = tested on: MDA-MD-157; experiment: Sensibility to AM5; assay type: cell-based, human; settings: MDA-MD-157, CSTN
Protocol: as §1

[8] = tested on: BT549; experiment: Sensibility to AM5; assay type: cell-based, human; settings: BT549, CSTN
Protocol: as §1

[9] = tested on: BT474; experiment: Sensibility to AM5; assay type: cell-based, human
Protocol: as §1

[10] = tested on: MCF-7; experiment: Sensibility to AM5; assay type: cell-based, human; settings: MCF-7, H+
Protocol: as §1

[11] = tested on: MDA-MB-134; experiment: Sensibility to AM5; assay type: cell-based, human
Protocol: as §1

[12] = tested on: HMLER CD24^high; experiment: Sensibility to AM5; assay type: cell-based, human
Protocol: as §1

[13] = RhoNox-1 reduction assay; settings: in the presence of iron (II)
Protocol: RhoNox-1 reduction assay. Experiments were carried in 96-well plate dishes. Reagent stock solutions were freshly prepared using Milli-Q water. 50 μL of solutions of Sal (800 μM), DFO (800 μM) and FeSO4 (80 μM) were mixed prior to addition of 50 μL of RhoNox-1 (40 μM) and completed with the appropriate volume of water to reach a final volume of 200 μL per well. Measurements were performed 30 min after addition of RhoNox-1 to the mix and were recorded using the PARADIGM™ Microplate Detection Platform (ex. 492 nm; em. 580 nm).

Compound	toxicity against primary breast cells [1]	Sensibility to AM5 [2]	Sensibility to AM5 [3]	Sensibility to AM5 [4]	Sensibility to AM5 [5]	Sensibility to AM5 [6]	Sensibility to AM5 [7]	Sensibility to AM5 [8]	Sensibility to AM5 [9]	Sensibility to AM5 [10]	Sensibility to AM5 [11]	Sensibility to AM5 [12]	effect on iron reactivity (fluorogenic reduction of RhoNox-1) [13]
C#CCN[C@@H]1C=C[C@]2(O[C@H]([C@@H](CC)C(=O)[C@@H](C)[C@@H](O)[C@H](C)C3O[C@@H](C(CC)C(=O)O)CC[C@@H]3C)[C@@H](C)C[C@H]2C)O[C@@]12CC[C@@](C)([C@H]1CC[C@](O)(CC)[C@H](C)O1)O2 (stereo partly shown) [AM5, Sal-Propargylamine]	little toxicity	Second	Resistant	Second	First	First	Second	Resistant	Second	First	Second	First	–
CC[C@@H](C(=O)[C@@H](C)[C@@H](O)[C@H](C)[C@@H]1O[C@@H]([C@@H](CC)C(=O)O)CC[C@@H]1C)[C@H]1O[C@]2(C=C[C@@H](O)[C@]3(CC[C@@](C)([C@H]4CC[C@](O)(CC)[C@H](C)O4)O3)O2)[C@H](C)C[C@@H]1C [Sal, salinomycin, reference compound]	–	–	–	–	–	–	–	–	–	–	–	–	without altering its reactivity
